From patent US7745574B2, “Compounds that regulate apoptosis” (The Burnham Institute, priority 2005, dated 2010)
[ ]: non-standard residue; d: D form. Ahx = NCCCCCC(=O)O

test system: H460 lung cancer cells; assay: Apoptosis in H460 lung cancer cells; assay type: cell-based; details: alanine scan, H460 lung cancer cells

Row | Substance | apoptotic effect of alanine-substituted Nur77-9
1 | acetyl-ASRSLHSLLGXmmrrr-amide [SEQ ID NO: 61] | largely impaired
2 | acetyl-FSRSAHSLLGXrrrrrrrr-amide (Ac-FSRSAHSLLG[Ahx][dR][dR][dR][dR][dR][dR][dR][dR]-NH2; SMILES CC(=O)N[C@@H](Cc1ccccc1)C(=O)N[C@@H](CO)C(=O)N[C@@H](CCCNC(=N)N)C(=O)N[C@@H](CO)C(=O)N[C@@H](C)C(=O)N[C@@H](Cc1c[nH]cn1)C(=O)N[C@@H](CO)C(=O)N[C@@H](CC(C)C)C(=O)N[C@@H](CC(C)C)C(=O)NCC(=O)NCCCCCC(=O)N[C@H](CCCNC(=N)N)C(=O)N[C@H](CCCNC(=N)N)C(=O)N[C@H](CCCNC(=N)N)C(=O)N[C@H](CCCNC(=N)N)C(=O)N[C@H](CCCNC(=N)N)C(=O)N[C@H](CCCNC(=N)N)C(=O)N[C@H](CCCNC(=N)N)C(=O)N[C@H](CCCNC(=N)N)C(N)=O) [SEQ ID NO: 62] | largely impaired
3 | acetyl-FSRSLHSALGXrrrrrrrr-amide (Ac-FSRSLHSALG[Ahx][dR][dR][dR][dR][dR][dR][dR][dR]-NH2; SMILES CC(=O)N[C@@H](Cc1ccccc1)C(=O)N[C@@H](CO)C(=O)N[C@@H](CCCNC(=N)N)C(=O)N[C@@H](CO)C(=O)N[C@@H](CC(C)C)C(=O)N[C@@H](Cc1c[nH]cn1)C(=O)N[C@@H](CO)C(=O)N[C@@H](C)C(=O)N[C@@H](CC(C)C)C(=O)NCC(=O)NCCCCCC(=O)N[C@H](CCCNC(=N)N)C(=O)N[C@H](CCCNC(=N)N)C(=O)N[C@H](CCCNC(=N)N)C(=O)N[C@H](CCCNC(=N)N)C(=O)N[C@H](CCCNC(=N)N)C(=O)N[C@H](CCCNC(=N)N)C(=O)N[C@H](CCCNC(=N)N)C(=O)N[C@H](CCCNC(=N)N)C(N)=O) [SEQ ID NO: 63] | largely impaired
4 | acetyl-FSRSLHSLAGXrrrrrrrr-amide (Ac-FSRSLHSLAG[Ahx][dR][dR][dR][dR][dR][dR][dR][dR]-NH2; SMILES CC(=O)N[C@@H](Cc1ccccc1)C(=O)N[C@@H](CO)C(=O)N[C@@H](CCCNC(=N)N)C(=O)N[C@@H](CO)C(=O)N[C@@H](CC(C)C)C(=O)N[C@@H](Cc1c[nH]cn1)C(=O)N[C@@H](CO)C(=O)N[C@@H](CC(C)C)C(=O)N[C@@H](C)C(=O)NCC(=O)NCCCCCC(=O)N[C@H](CCCNC(=N)N)C(=O)N[C@H](CCCNC(=N)N)C(=O)N[C@H](CCCNC(=N)N)C(=O)N[C@H](CCCNC(=N)N)C(=O)N[C@H](CCCNC(=N)N)C(=O)N[C@H](CCCNC(=N)N)C(=O)N[C@H](CCCNC(=N)N)C(=O)N[C@H](CCCNC(=N)N)C(N)=O) [SEQ ID NO: 64] | largely impaired

molecular target: T1, Bcl-2 (Homo sapiens, UniProt P10415); assay: Bcl-2 conformational change, anti-Bcl-2/BH3 antibody staining of HEK293T cells transfected with Bcl-2; assay type: cell-based; set-up: expressed in transfected cells; host or cells: HEK293T; details: flow cytometry
T1 sequence (P10415 whole entry, the tested form may be a part): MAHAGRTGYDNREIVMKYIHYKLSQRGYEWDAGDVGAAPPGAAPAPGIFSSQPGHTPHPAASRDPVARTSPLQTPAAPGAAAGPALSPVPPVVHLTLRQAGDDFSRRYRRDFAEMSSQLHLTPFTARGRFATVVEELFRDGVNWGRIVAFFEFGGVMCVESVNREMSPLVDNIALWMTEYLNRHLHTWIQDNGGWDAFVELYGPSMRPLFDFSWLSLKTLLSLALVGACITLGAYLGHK
Description: Such a Bcl-2 conformation is recognized by an anti-Bcl-2 antibody raised against the Bcl-2 BH3 domain. To determine whether NuBCP-9 induced a Bcl-2 conformational change, flow cytometric assays were conducted which HEK293T cells transfected with Bcl-2 were exposed to NuBCPs and subsequently stained with the anti-Bcl-2/BH3 antibody.

Row | Substance | Bcl-2 immunofluorescence by anti-Bcl-2/BH3 antibody
5 | Smac-peptide-r8: Smac peptide conjugated with r8, apoptosis-inducing comparison peptide (Ac-AVPIAQKC[Ahx][dR][dR][dR][dR][dR][dR][dR][dR]-NH2; also: Cys thiol joined to chloroacetyl-Ahx by thioether) [reference compound] | did not show any Bcl-2 immunofluorescence

molecular target: T1, Bcl-2; assay: Co-immunoprecipitation with Bcl-2 in HEK293T cells; assay type: binding; set-up: expressed in transfected cells; host or cells: HEK293T; details: peptide added
Description: Nur77 peptide binds anti-apoptotic Bcl-2 family members. Nur77-peptide binds Bcl-B, Bfl-1, and Bcl-2, but not Mcl-1 and Bcl-xL. […] The expression vector for the GFP-Nur77/489-497 fusion was transfected into HEK293T cells together with or without the indicated expression vector for myc-tagged Bcl-2 family member. Cell lysates were prepared and analyzed for interaction of Nur77/489-497 with Bcl-2 family members by co-immunoprecipitation assay using anti-Myc antibody. Immunoprecipitates were then separated on SDS/PAGE and immunoblotted using anti-GFP antibody. […] Nur77/Bcl-2 interaction assays—Reporter gene assays using NurRE-tk-CAT in CV-1 cells, and GST pull-down assay were described previously (Li, et al. 2000 Science 289:1159-1164). For the mammalian two-hybrid assays, CV-1 cells were co-transfected with pcDNA-Gal4TAD-Nur77 or pcDNA-Gal4TAD-Nur77/ΔDBD and pcDNA-Gal4 DBD-Bcl-2/ΔTM along with a luciferase reporter gene driven by four copies of the Gal-4-binding site. The cells were harvested and reporter gene activity was measured. For Co-IP assays, HEK293T cells were transiently transfected with various expression plasmids using a modified calcium phosphate precipitation method (Wu et al, 1997) in the presence of caspase inhibitors (zVAD-fmk) to prevent degradation of Nur77 protein due to apoptosis. Cells were suspended in lysis buffer (50 mM Tris-HCl, PH7.4; 150 mM NaCl; 20 mM EDTA; 1% NP-40; 1 mM PMSF; 50 μg/ml Leupeptin; […]; 0.1 mM Na3VO4; and 1 mM DTT). Cells extracts were cleared by incubation with the Protein A/G plus Agarose beads (Santa Cruz) and then incubated with appropriate antibody and 30 μl of Protein A or G plus Agarose beads overnight at 4° C. […] Immunoreactive products were detected by chemiluminescence with an enhanced chemiluminescence system (ECL) (Amersham).

Row | inhibition of co-precipitation of GFP-Nur77/489-497 with Bcl-2 | Substance
6 | not | Smac-peptide-r8: Smac peptide conjugated with r8, apoptosis-inducing comparison peptide (Ac-AVPIAQKC[Ahx][dR][dR][dR][dR][dR][dR][dR][dR]-NH2; also: Cys thiol joined to chloroacetyl-Ahx by thioether) [reference compound]

test system: not listed separately; assay: Induction of apoptosis by Nur77 peptides, cell line not stated; assay type: cell-based; details: not given
Description: Apoptosis assays—For nuclear morphological change analysis, cells were trypsinized, washed with PBS, fixed with 3.7% paraformaldehyde, and stained with DAPI (4,6-diamidino-2-phenylindole) (50 μg/ml) to visualize the nuclei by UV-microscopy. The percentages of apoptotic cells were determined by counting 300 GFP-positive cells, scoring cells having nuclear fragmentation and/or chromatin condensation.

Row | Substance | induction of apoptosis
7 | acetyl------------FAALSALVLGXrrrrrrrr-amide (Ac-FAALSALVLG[Ahx][dR][dR][dR][dR][dR][dR][dR][dR]-NH2; SMILES CC(=O)N[C@@H](Cc1ccccc1)C(=O)N[C@@H](C)C(=O)N[C@@H](C)C(=O)N[C@@H](CC(C)C)C(=O)N[C@@H](CO)C(=O)N[C@@H](C)C(=O)N[C@@H](CC(C)C)C(=O)N[C@H](C(=O)N[C@@H](CC(C)C)C(=O)NCC(=O)NCCCCCC(=O)N[C@H](CCCNC(=N)N)C(=O)N[C@H](CCCNC(=N)N)C(=O)N[C@H](CCCNC(=N)N)C(=O)N[C@H](CCCNC(=N)N)C(=O)N[C@H](CCCNC(=N)N)C(=O)N[C@H](CCCNC(=N)N)C(=O)N[C@H](CCCNC(=N)N)C(=O)N[C@H](CCCNC(=N)N)C(N)=O)C(C)C) [SEQ ID NO: 17] | apoptotic
8 | acetyl------------FGDWIDSILGXrrrrrrrr-amide (Ac-FGDWIDSILG[Ahx][dR][dR][dR][dR][dR][dR][dR][dR]-NH2; SMILES CC[C@H](C)[C@H](NC(=O)[C@H](CO)NC(=O)[C@H](CC(=O)O)NC(=O)[C@@H](NC(=O)[C@H](Cc1c[nH]c2ccccc12)NC(=O)[C@H](CC(=O)O)NC(=O)CNC(=O)[C@H](Cc1ccccc1)NC(C)=O)[C@@H](C)CC)C(=O)N[C@@H](CC(C)C)C(=O)NCC(=O)NCCCCCC(=O)N[C@H](CCCNC(=N)N)C(=O)N[C@H](CCCNC(=N)N)C(=O)N[C@H](CCCNC(=N)N)C(=O)N[C@H](CCCNC(=N)N)C(=O)N[C@H](CCCNC(=N)N)C(=O)N[C@H](CCCNC(=N)N)C(=O)N[C@H](CCCNC(=N)N)C(=O)N[C@H](CCCNC(=N)N)C(N)=O) [SEQ ID NO: 16] | apoptotic
9 | acetyl------------FYLKLEDLVGXrrrrrrrr-amide (Ac-FYLKLEDLVG[Ahx][dR][dR][dR][dR][dR][dR][dR][dR]-NH2; SMILES CC(=O)N[C@@H](Cc1ccccc1)C(=O)N[C@@H](Cc1ccc(O)cc1)C(=O)N[C@@H](CC(C)C)C(=O)N[C@@H](CCCCN)C(=O)N[C@@H](CC(C)C)C(=O)N[C@@H](CCC(=O)O)C(=O)N[C@@H](CC(=O)O)C(=O)N[C@@H](CC(C)C)C(=O)N[C@H](C(=O)NCC(=O)NCCCCCC(=O)N[C@H](CCCNC(=N)N)C(=O)N[C@H](CCCNC(=N)N)C(=O)N[C@H](CCCNC(=N)N)C(=O)N[C@H](CCCNC(=N)N)C(=O)N[C@H](CCCNC(=N)N)C(=O)N[C@H](CCCNC(=N)N)C(=O)N[C@H](CCCNC(=N)N)C(=O)N[C@H](CCCNC(=N)N)C(N)=O)C(C)C) [SEQ ID NO: 18] | apoptotic
10 | acetyl------------LLSHLSRSFGXrrrrrrrr-amide (Ac-LLSHLSRSFG[Ahx][dR][dR][dR][dR][dR][dR][dR][dR]-NH2; not fully specified; printed as acetyl------------LLSHLSRSFGXrrrrrrrr-amide) [Nur77/1 (inverso)] | apoptotic
11 | acetyl------------llshlsrsfGXrrrrrrrr-amide (Ac-[dL][dL][dS][dH][dL][dS][dR][dS][dF]G[Ahx][dR][dR][dR][dR][dR][dR][dR][dR]-NH2; SMILES CC(=O)N[C@H](CC(C)C)C(=O)N[C@H](CC(C)C)C(=O)N[C@H](CO)C(=O)N[C@H](Cc1c[nH]cn1)C(=O)N[C@H](CC(C)C)C(=O)N[C@H](CO)C(=O)N[C@H](CCCNC(=N)N)C(=O)N[C@H](CO)C(=O)N[C@H](Cc1ccccc1)C(=O)NCC(=O)NCCCCCC(=O)N[C@H](CCCNC(=N)N)C(=O)N[C@H](CCCNC(=N)N)C(=O)N[C@H](CCCNC(=N)N)C(=O)N[C@H](CCCNC(=N)N)C(=O)N[C@H](CCCNC(=N)N)C(=O)N[C@H](CCCNC(=N)N)C(=O)N[C@H](CCCNC(=N)N)C(=O)N[C@H](CCCNC(=N)N)C(N)=O) [Nur77/1(retro-inverso)] | apoptotic
12 | acetyl---F——L_LLGXrrrrrrrr-amide (Ac-FLLLG[Ahx][dR][dR][dR][dR][dR][dR][dR][dR]-NH2; SMILES CC(=O)N[C@@H](Cc1ccccc1)C(=O)N[C@@H](CC(C)C)C(=O)N[C@@H](CC(C)C)C(=O)N[C@@H](CC(C)C)C(=O)NCC(=O)NCCCCCC(=O)N[C@H](CCCNC(=N)N)C(=O)N[C@H](CCCNC(=N)N)C(=O)N[C@H](CCCNC(=N)N)C(=O)N[C@H](CCCNC(=N)N)C(=O)N[C@H](CCCNC(=N)N)C(=O)N[C@H](CCCNC(=N)N)C(=O)N[C@H](CCCNC(=N)N)C(=O)N[C@H](CCCNC(=N)N)C(N)=O) [SEQ ID NO: 40] | apoptotic
